Where “and” joins values, the source holds several entries; their conditions need not be identical. Identical values can stand only once.
Columns and labels:
SfurOBP1 = SfurOBP1 (Sogatella furcifera, UniProt V5T8N5); experiment: biochemical; format: binding; details: for Fluorescence competitive binding assay, fluorescence intensity: OBP1, three replicate columns
Summary of the method: (§1)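 Fluorescence competitive binding used 2.0 µM SfurOBP and 2.0 µM 1-NPN reporter in 50 mM Tris-HCl, pH 7.4, with odorants at 2-20 µM. Fluorescence was read 2 min after adding the odorant (excitation 337 nm, emission 390-490 nm), in triplicate. Ki was calculated from IC50 as IC50/(1 + [1-NPN]/K1-NPN).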

SfurOBP11 = SfurOBP11 (Sogatella furcifera, UniProt V5T6E3); experiment: biochemical; format: binding
Summary of the method: as §1

SfurOBP2 = SfurOBP2 (Sogatella furcifera, UniProt V5T759); experiment: biochemical; format: binding
Summary of the method: as §1

SfurOBP3 = SfurOBP3 (Sogatella furcifera, UniProt V5T818); experiment: biochemical; format: binding; details: for Fluorescence competitive binding assay, fluorescence intensity: OBP3, three replicate columns
Summary of the method: as §1

S. furcifera adults = experiment: Y-tube olfactometer behavioral trials; format: in vivo, Sogatella furcifera; details: odorant 50 µL/L vs hexane; adults
Summary of the method: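 Single S. furcifera adults (2 days post-emergence, starved 0.5 h) chose between odorant (100 µL of 50 µL/L on filter paper) and hexane control in a glass Y-tube, charcoal-filtered humidified air 300 mL/min per arm, 25 ± 1 °C, 50% RH. Choice scored if insect passed half an arm and stayed >1 min within 10 min; 45 insects per compound, chi-squared test.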

Chain of SfurOBP3 (V5T818 entry or part of it): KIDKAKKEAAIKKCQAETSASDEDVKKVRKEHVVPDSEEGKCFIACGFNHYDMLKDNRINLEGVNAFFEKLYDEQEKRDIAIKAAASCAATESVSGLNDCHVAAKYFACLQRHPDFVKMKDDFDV
Chain of SfurOBP2 (V5T759 entry or part of it): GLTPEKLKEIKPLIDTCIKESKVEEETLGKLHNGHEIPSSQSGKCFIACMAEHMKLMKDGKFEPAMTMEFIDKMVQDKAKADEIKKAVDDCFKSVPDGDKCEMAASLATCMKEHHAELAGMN
Chain of SfurOBP1 (V5T8N5 entry or part of it): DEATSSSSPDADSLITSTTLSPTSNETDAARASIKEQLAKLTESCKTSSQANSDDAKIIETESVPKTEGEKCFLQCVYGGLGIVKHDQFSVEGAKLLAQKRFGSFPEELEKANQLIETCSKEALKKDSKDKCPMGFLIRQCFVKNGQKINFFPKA
Chain of SfurOBP11 (V5T6E3 entry or part of it): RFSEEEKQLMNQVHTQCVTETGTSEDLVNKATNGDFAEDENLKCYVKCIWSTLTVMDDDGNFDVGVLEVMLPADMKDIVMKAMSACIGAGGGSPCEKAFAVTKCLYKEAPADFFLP

In the case of `CCCCCCC=CCO` [2-nonen-1-ol], the “Fluorescence competitive binding assay, fluorescence intensity” value (SfurOBP1; ligand concentration 2 (μM)) is reported as 6522 and 6473 and 6498, the “Fluorescence competitive binding assay, fluorescence intensity” value (SfurOBP1; ligand concentration 4 (μM)) is reported as 5655 and 6432 and 6908 and the “Fluorescence competitive binding assay, fluorescence intensity” value (SfurOBP1; ligand concentration 6 (μM)) is reported as 8453 and 7604 and 7714. For the same molecule, the “Fluorescence competitive binding assay, fluorescence intensity” value (SfurOBP1; ligand concentration 8 (μM)) was 8297 and 7919 and 6967, the “Fluorescence competitive binding assay, fluorescence intensity” value (SfurOBP1; ligand concentration 10 (μM)) was 6386 and 8717 and 6918 and the “Fluorescence competitive binding assay, fluorescence intensity” value (SfurOBP1; ligand concentration 12 (μM)) was 6193 and 7108 and 6694. For the same molecule, the “Fluorescence competitive binding assay, fluorescence intensity” value (SfurOBP1; ligand concentration 14 (μM)) was 6199 and 6820 and 8443, the “Fluorescence competitive binding assay, fluorescence intensity” value (SfurOBP1; ligand concentration 16 (μM)) was 5457 and 5916 and 5787 and the “Fluorescence competitive binding assay, fluorescence intensity” value (SfurOBP1; ligand concentration 18 (μM)) was 6097 and 9706 and 8104. For the same molecule, the “Fluorescence competitive binding assay, fluorescence intensity” value (SfurOBP1; ligand concentration 20 (μM)) was 6801 and 6290 and 6295, the IC50 (SfurOBP1; SfurOBP1, protein and 1-NPN both 2.0 µM, competitor 2-20 µM, read-out: IC50) was greater than 20 µM and the IC50 (SfurOBP11; SfurOBP11, protein and 1-NPN both 2.0 µM, competitor 2-20 µM, read-out: IC50) was greater than 20 µM. For the same molecule, the “Fluorescence intensity, fluorescence competitive binding assay, OBP11” value (from here on “Fluorescence intensity … OBP11”) (SfurOBP11; ligand concentration 2, replicate 1) was 37643, the “Fluorescence intensity … OBP11” value (SfurOBP11; ligand concentration 2, replicate 2) was 35290 and the “Fluorescence intensity … OBP11” value (SfurOBP11; ligand concentration 2, replicate 3) was 44360. For the same molecule, the “Fluorescence intensity … OBP11” value (SfurOBP11; ligand concentration 4, replicate 1) was 35859, the “Fluorescence intensity … OBP11” value (SfurOBP11; ligand concentration 4, replicate 2) was 39342 and the “Fluorescence intensity … OBP11” value (SfurOBP11; ligand concentration 4, replicate 3) was 34938. The “Fluorescence intensity … OBP11” value (SfurOBP11; ligand concentration 6, replicate 1) was 34140, the “Fluorescence intensity … OBP11” value (SfurOBP11; ligand concentration 6, replicate 2) was 38169 and the “Fluorescence intensity … OBP11” value (SfurOBP11; ligand concentration 6, replicate 3) was 36155. For the same molecule, the “Fluorescence intensity … OBP11” value (SfurOBP11; ligand concentration 8, replicate 1) was 32705, the “Fluorescence intensity … OBP11” value (SfurOBP11; ligand concentration 8, replicate 2) was 34472 and the “Fluorescence intensity … OBP11” value (SfurOBP11; ligand concentration 8, replicate 3) was 34378. The “Fluorescence intensity … OBP11” value (SfurOBP11; ligand concentration 10, replicate 1) was 32486, the “Fluorescence intensity … OBP11” value (SfurOBP11; ligand concentration 10, replicate 2) was 33152 and the “Fluorescence intensity … OBP11” value (SfurOBP11; ligand concentration 10, replicate 3) was 33818. The “Fluorescence intensity … OBP11” value (SfurOBP11; ligand concentration 12, replicate 1) was 28113, the “Fluorescence intensity … OBP11” value (SfurOBP11; ligand concentration 12, replicate 2) was 29890 and the “Fluorescence intensity … OBP11” value (SfurOBP11; ligand concentration 12, replicate 3) was 30957. The “Fluorescence intensity … OBP11” value (SfurOBP11; ligand concentration 14, replicate 1) was 27880, the “Fluorescence intensity … OBP11” value (SfurOBP11; ligand concentration 14, replicate 2) was 28227 and the “Fluorescence intensity … OBP11” value (SfurOBP11; ligand concentration 14, replicate 3) was 28574. The “Fluorescence intensity … OBP11” value (SfurOBP11; ligand concentration 16, replicate 1) was 24059, the “Fluorescence intensity … OBP11” value (SfurOBP11; ligand concentration 16, replicate 2) was 25490 and the “Fluorescence intensity … OBP11” value (SfurOBP11; ligand concentration 16, replicate 3) was 25182. For the same molecule, the “Fluorescence intensity … OBP11” value (SfurOBP11; ligand concentration 18, replicate 1) was 30643, the “Fluorescence intensity … OBP11” value (SfurOBP11; ligand concentration 18, replicate 2) was 29725 and the “Fluorescence intensity … OBP11” value (SfurOBP11; ligand concentration 18, replicate 3) was 31591. For the same molecule, the “Fluorescence intensity … OBP11” value (SfurOBP11; ligand concentration 20, replicate 1) was 30015, the “Fluorescence intensity … OBP11” value (SfurOBP11; ligand concentration 20, replicate 2) was 28576 and the “Fluorescence intensity … OBP11” value (SfurOBP11; ligand concentration 20, replicate 3) was 24669. For the same molecule, the IC50 (SfurOBP2; SfurOBP2, protein and 1-NPN both 2.0 µM, competitor 2-20 µM, read-out: IC50) was greater than 20 µM, the “Fluorescence competitive binding assay, OBP2 (raw fluorescence reading)” value (SfurOBP2; ligand concentration 2 (unit not given), replicate column 1 of 3) was 23899 and the “Fluorescence competitive binding assay, OBP2 (raw fluorescence reading)” value (SfurOBP2; ligand concentration 2 (unit not given), replicate column 2 of 3) was 21462. The “Fluorescence competitive binding assay, OBP2 (raw fluorescence reading)” value (SfurOBP2; ligand concentration 2 (unit not given), replicate column 3 of 3) was 22264, the “Fluorescence competitive binding assay, OBP2 (raw fluorescence reading)” value (SfurOBP2; ligand concentration 4 (unit not given), replicate column 1 of 3) was 25374 and the “Fluorescence competitive binding assay, OBP2 (raw fluorescence reading)” value (SfurOBP2; ligand concentration 4 (unit not given), replicate column 2 of 3) was 25147. For the same molecule, the “Fluorescence competitive binding assay, OBP2 (raw fluorescence reading)” value (SfurOBP2; ligand concentration 4 (unit not given), replicate column 3 of 3) was 24357, the “Fluorescence competitive binding assay, OBP2 (raw fluorescence reading)” value (SfurOBP2; ligand concentration 6 (unit not given), replicate column 1 of 3) was 25139 and the “Fluorescence competitive binding assay, OBP2 (raw fluorescence reading)” value (SfurOBP2; ligand concentration 6 (unit not given), replicate column 2 of 3) was 24429. For the same molecule, the “Fluorescence competitive binding assay, OBP2 (raw fluorescence reading)” value (SfurOBP2; ligand concentration 6 (unit not given), replicate column 3 of 3) was 24096, the “Fluorescence competitive binding assay, OBP2 (raw fluorescence reading)” value (SfurOBP2; ligand concentration 8 (unit not given), replicate column 1 of 3) was 22380 and the “Fluorescence competitive binding assay, OBP2 (raw fluorescence reading)” value (SfurOBP2; ligand concentration 8 (unit not given), replicate column 2 of 3) was 22288. The “Fluorescence competitive binding assay, OBP2 (raw fluorescence reading)” value (SfurOBP2; ligand concentration 8 (unit not given), replicate column 3 of 3) was 21248, the “Fluorescence competitive binding assay, OBP2 (raw fluorescence reading)” value (SfurOBP2; ligand concentration 10 (unit not given), replicate column 1 of 3) was 20934 and the “Fluorescence competitive binding assay, OBP2 (raw fluorescence reading)” value (SfurOBP2; ligand concentration 10 (unit not given), replicate column 2 of 3) was 21198. For the same molecule, the “Fluorescence competitive binding assay, OBP2 (raw fluorescence reading)” value (SfurOBP2; ligand concentration 10 (unit not given), replicate column 3 of 3) was 20778, the “Fluorescence competitive binding assay, OBP2 (raw fluorescence reading)” value (SfurOBP2; ligand concentration 12 (unit not given), replicate column 1 of 3) was 19074 and the “Fluorescence competitive binding assay, OBP2 (raw fluorescence reading)” value (SfurOBP2; ligand concentration 12 (unit not given), replicate column 2 of 3) was 19350. For the same molecule, the “Fluorescence competitive binding assay, OBP2 (raw fluorescence reading)” value (SfurOBP2; ligand concentration 12 (unit not given), replicate column 3 of 3) was 18397, the “Fluorescence competitive binding assay, OBP2 (raw fluorescence reading)” value (SfurOBP2; ligand concentration 14 (unit not given), replicate column 1 of 3) was 16875 and the “Fluorescence competitive binding assay, OBP2 (raw fluorescence reading)” value (SfurOBP2; ligand concentration 14 (unit not given), replicate column 2 of 3) was 19948. The “Fluorescence competitive binding assay, OBP2 (raw fluorescence reading)” value (SfurOBP2; ligand concentration 14 (unit not given), replicate column 3 of 3) was 17641, the “Fluorescence competitive binding assay, OBP2 (raw fluorescence reading)” value (SfurOBP2; ligand concentration 16 (unit not given), replicate column 1 of 3) was 16016 and the “Fluorescence competitive binding assay, OBP2 (raw fluorescence reading)” value (SfurOBP2; ligand concentration 16 (unit not given), replicate column 2 of 3) was 16681. For the same molecule, the “Fluorescence competitive binding assay, OBP2 (raw fluorescence reading)” value (SfurOBP2; ligand concentration 16 (unit not given), replicate column 3 of 3) was 14367, the “Fluorescence competitive binding assay, OBP2 (raw fluorescence reading)” value (SfurOBP2; ligand concentration 18 (unit not given), replicate column 1 of 3) was 17119 and the “Fluorescence competitive binding assay, OBP2 (raw fluorescence reading)” value (SfurOBP2; ligand concentration 18 (unit not given), replicate column 2 of 3) was 16819. The “Fluorescence competitive binding assay, OBP2 (raw fluorescence reading)” value (SfurOBP2; ligand concentration 18 (unit not given), replicate column 3 of 3) was 15979, the “Fluorescence competitive binding assay, OBP2 (raw fluorescence reading)” value (SfurOBP2; ligand concentration 20 (unit not given), replicate column 1 of 3) was 16047 and the “Fluorescence competitive binding assay, OBP2 (raw fluorescence reading)” value (SfurOBP2; ligand concentration 20 (unit not given), replicate column 2 of 3) was 15694. For the same molecule, the “Fluorescence competitive binding assay, OBP2 (raw fluorescence reading)” value (SfurOBP2; ligand concentration 20 (unit not given), replicate column 3 of 3) was 13725, the “Fluorescence competitive binding assay, fluorescence intensity” value (SfurOBP3; ligand concentration 2) was 69777 and 64977 and 64069 and the “Fluorescence competitive binding assay, fluorescence intensity” value (SfurOBP3; ligand concentration 4) was 69897 and 66654 and 59281. The “Fluorescence competitive binding assay, fluorescence intensity” value (SfurOBP3; ligand concentration 6) was 72805 and 63593 and 63408, the “Fluorescence competitive binding assay, fluorescence intensity” value (SfurOBP3; ligand concentration 8) was 68908 and 64822 and 61456 and the “Fluorescence competitive binding assay, fluorescence intensity” value (SfurOBP3; ligand concentration 10) was 63843 and 54968 and 55110. The “Fluorescence competitive binding assay, fluorescence intensity” value (SfurOBP3; ligand concentration 12) was 59021 and 51372 and 52724, the “Fluorescence competitive binding assay, fluorescence intensity” value (SfurOBP3; ligand concentration 14) was 52703 and 46147 and 50940 and the “Fluorescence competitive binding assay, fluorescence intensity” value (SfurOBP3; ligand concentration 16) was 47036 and 45518 and 44907. For the same molecule, the “Fluorescence competitive binding assay, fluorescence intensity” value (SfurOBP3; ligand concentration 18) was 49989 and 48773 and 43710, the “Fluorescence competitive binding assay, fluorescence intensity” value (SfurOBP3; ligand concentration 20) was 40319 and 40656 and 42300 and the IC50 (SfurOBP3; SfurOBP3, protein and 1-NPN both 2.0 µM, competitor 2-20 µM, read-out: IC50) was greater than 20 µM. For the same molecule, the “number of insects choosing hexane arm” value (S. furcifera adults) was 12, the “number of insects choosing volatilies arm” value (S. furcifera adults) was 18 and the “number of insects failed (no choice)” value (S. furcifera adults) was 10.
